Results on 32 compounds are retold here after patent publication US7135466B2 (Kirin Beer Kabushiki Kaisha, priority 1999, dated 2006).

Like-named read-outs stand apart in the source and are kept apart here.

As usually defined, the IC50 is the concentration that inhibits the measured activity by half. Broadly, the inhibition is the change of the read-out against control, counted positive when it falls.

The target of assay [1] is T1, c-kit (Homo sapiens, UniProt P10721).
T1 construct: MO7e (human megakaryocytic leukemia cell line) which had been arrested for 20 hr; endogenous in cells; host or cells: MO7e human megakaryocytic leukemia cell line
The assay can be described thus: Inhibitory activity against c-kit autophosphorylation (MO7e cells, h-SCF). It counts as cell-based. The following applies: for IC50: MO7e cells, read-out: c-kit IC50. The procedure, abridged: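 MO7e human megakaryocytic leukemia cells, arrested 20 hr, treated with compound 1 hr, then stimulated with 50 ng/ml h-SCF for 5 min and lysed. Lysates captured on immobilized anti-phosphotyrosine antibody, detected with anti-c-kit primary and HRP secondary antibody; absorbance at 450 nm.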

Assay [2] concerns the target T2, PDGF-Ra (Homo sapiens, UniProt P16234).
T2 construct: host or cells: G-292 human osteosarcoma cells
The experiment in a line: Inhibitory activity against PDGF-Ra phosphorylation by PDGF-AA stimulation using G292. The following applies: for IC50: > means inhibition at indicated concentration not more than 50%, < and << not less than 50%, read-out: PDGF (E) IC50. It counts as cell-based. The procedure, abridged: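 Phospho-PDGF-Ra ELISA: capture with PY-20 antiphosphotyrosine, detection with anti-PDGF-Ra and peroxidase secondary, read at 450 nm. Lysates came from G-292 osteosarcoma cells starved in 0.1% FBS, compound-treated 1 hr at 37° C, and stimulated with 50 ng/ml PDGF-AA for 5 min.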

T2 sequence (P16234 24-1089): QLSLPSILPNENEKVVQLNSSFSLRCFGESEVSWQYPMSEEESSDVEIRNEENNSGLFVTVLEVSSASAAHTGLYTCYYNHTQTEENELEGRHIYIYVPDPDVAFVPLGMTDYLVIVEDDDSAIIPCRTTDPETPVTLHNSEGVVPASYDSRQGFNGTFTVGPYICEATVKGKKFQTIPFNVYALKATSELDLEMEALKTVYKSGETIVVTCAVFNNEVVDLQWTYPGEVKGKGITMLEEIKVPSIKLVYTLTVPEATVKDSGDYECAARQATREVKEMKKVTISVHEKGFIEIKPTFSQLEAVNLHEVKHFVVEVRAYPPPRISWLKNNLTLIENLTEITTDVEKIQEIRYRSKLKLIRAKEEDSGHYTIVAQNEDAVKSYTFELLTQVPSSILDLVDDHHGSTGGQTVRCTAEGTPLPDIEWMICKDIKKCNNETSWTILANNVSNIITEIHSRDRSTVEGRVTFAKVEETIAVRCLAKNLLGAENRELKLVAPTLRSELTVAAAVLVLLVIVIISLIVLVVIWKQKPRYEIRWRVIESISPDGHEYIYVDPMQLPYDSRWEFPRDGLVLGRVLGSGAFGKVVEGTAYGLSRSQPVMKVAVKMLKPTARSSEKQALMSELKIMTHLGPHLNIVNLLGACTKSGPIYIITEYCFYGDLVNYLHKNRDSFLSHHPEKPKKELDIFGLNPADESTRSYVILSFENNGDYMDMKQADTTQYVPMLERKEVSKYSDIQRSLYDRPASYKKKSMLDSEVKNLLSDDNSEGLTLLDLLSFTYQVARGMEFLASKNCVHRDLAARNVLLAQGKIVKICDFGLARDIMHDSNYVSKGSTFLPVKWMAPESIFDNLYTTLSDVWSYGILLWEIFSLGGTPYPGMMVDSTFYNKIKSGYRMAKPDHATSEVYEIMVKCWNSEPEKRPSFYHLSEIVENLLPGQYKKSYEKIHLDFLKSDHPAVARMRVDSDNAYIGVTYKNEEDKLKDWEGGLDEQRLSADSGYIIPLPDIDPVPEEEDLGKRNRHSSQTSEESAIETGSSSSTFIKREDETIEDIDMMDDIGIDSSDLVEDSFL
T1 sequence (P10721 26-976): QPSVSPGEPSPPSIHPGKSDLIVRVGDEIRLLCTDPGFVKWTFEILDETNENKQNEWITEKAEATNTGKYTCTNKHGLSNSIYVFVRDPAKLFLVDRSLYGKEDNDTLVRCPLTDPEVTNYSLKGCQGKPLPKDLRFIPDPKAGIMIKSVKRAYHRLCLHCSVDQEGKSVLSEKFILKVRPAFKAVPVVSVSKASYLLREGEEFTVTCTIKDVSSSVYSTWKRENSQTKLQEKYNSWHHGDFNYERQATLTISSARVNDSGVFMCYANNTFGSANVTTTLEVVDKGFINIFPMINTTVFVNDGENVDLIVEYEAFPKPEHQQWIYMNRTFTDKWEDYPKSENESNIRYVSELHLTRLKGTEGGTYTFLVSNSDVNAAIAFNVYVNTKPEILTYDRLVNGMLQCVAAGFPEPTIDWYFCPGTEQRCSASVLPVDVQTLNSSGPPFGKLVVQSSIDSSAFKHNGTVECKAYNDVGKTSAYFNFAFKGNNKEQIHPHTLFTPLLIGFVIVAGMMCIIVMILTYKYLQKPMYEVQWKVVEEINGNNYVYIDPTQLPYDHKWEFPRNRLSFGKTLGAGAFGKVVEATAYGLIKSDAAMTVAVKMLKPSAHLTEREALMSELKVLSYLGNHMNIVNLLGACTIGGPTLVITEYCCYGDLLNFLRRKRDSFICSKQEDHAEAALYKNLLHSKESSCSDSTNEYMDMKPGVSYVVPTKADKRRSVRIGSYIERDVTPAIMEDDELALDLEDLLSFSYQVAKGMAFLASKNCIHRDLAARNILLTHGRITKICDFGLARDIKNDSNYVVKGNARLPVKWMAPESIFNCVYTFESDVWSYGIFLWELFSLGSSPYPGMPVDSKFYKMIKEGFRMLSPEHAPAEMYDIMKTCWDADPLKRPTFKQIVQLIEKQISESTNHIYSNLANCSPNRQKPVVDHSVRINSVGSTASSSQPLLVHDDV

On to “1-(3-Chlorophenyl)ethyl N-{4-((6,7-dimethoxy-4-quinazolinyl)oxy)phenyl}carbamate [Example 3]”, for which the IC50 in assay [1] (h-SCF 50 ng/ml) was 173 nM; in assay [2] (Pharmacological Test Example 1), less than 10 nM.

Take “3-Morpholinopropyl N-{4-[(6,7-dimethoxy-4-quinolyl)oxy]-2,5-dimethylphenyl}carbamate [Example 423]”: the results for the IC50 in assay [1] (50 ng/ml h-SCF) and in assay [2] were 102 nM and less than 10 nM, respectively. Take “3-[(4-Methylphenyl)sulfanyl]ethyl N-{4-[(6,7-dimethoxy-4-quinolyl)oxy]-2,5-dimethylphenyl}carbamate [Example 139]”: the values for the IC50 in assay [1] (h-SCF 50 ng/ml) and in assay [2] (Pharmacological Test Example 1) were 80 nM and 57 nM, respectively.

With “4-(Dimethylamino)butyl N-{4-[(6,7-dimethoxy-4-quinazolinyl)oxy]phenyl}carbamate [Example 194]”, the IC50 in assay [1] (h-SCF 50 ng/ml) was 715 nM; in assay [2] (Pharmacological Test Example 1), 91 nM. Consider `COc1cc2ncnc(Oc3ccc(NC(=O)OCc4ccc(C)cc4)cc3)c2cc1OC` [Example 1, 4-Methylbenzyl N-{4-[(6,7-dimethoxy-4-quinazolinyl)oxy]phenyl}carbamate], for which the IC50 in assay [1] (h-SCF 50 ng/ml) was 52 nM; in assay [2] (Pharmacological Test Example 1), less than 10 nM. For `COc1cc2ncnc(Oc3ccc(NC(=O)OCc4ccc(C)cc4)c(Cl)c3)c2cc1OC` [Example 2, 4-Methylbenzyl N-{2-chloro-4-[(6,7-dimethoxy-4-quinazolinyl)oxy]phenyl}carbamate], the IC50 came out at 422 nM in assay [1] (h-SCF 50 ng/ml) and 17 nM in assay [2] (Pharmacological Test Example 1). Regarding `COc1cc2nccc(Oc3ccc(NC(=O)OC(C)c4cccc(Cl)c4)c(C)c3C)c2cc1OC` (stereo not drawn) [Example 4, 1-(3-Chlorophenyl)ethyl N-{4-[(6,7-dimethoxy-4-quinolyl)oxy]-2,3-dimethylphenyl}carbamate], the IC50 in assay [1] (h-SCF 50 ng/ml) is 133 nM; in assay [2] (Pharmacological Test Example 1), less than 10 nM. With `COc1cc2nccc(Oc3cc(C)c(NC(=O)OC(C)c4cccc(Cl)c4)cc3C)c2cc1OC` (stereo not drawn) [Example 5, 1-(3-Chlorophenyl)ethyl N-{4-[(6,7-dimethoxy-4-quinolyl)oxy]-2,5-dimethylphenyl}carbamate], the figures for the IC50 in assay [1] (h-SCF 50 ng/ml) and in assay [2] (Pharmacological Test Example 1) were 336 nM and 24 nM, respectively.

Consider `COc1cc2ncnc(Oc3ccc(NC(=O)OC(C)c4cccc(Cl)c4)cc3)c2cc1OC` (stereo not drawn) [Example 6, 1-(3-Chlorophenyl)ethyl N-{4-[(6,7-dimethoxy-4-quinazolinyl)oxy]phenyl}carbamate], for which the IC50 in assay [1] (h-SCF 50 ng/ml) is 175 nM; in assay [2] (Pharmacological Test Example 1), less than 10 nM.

Turning to `COc1cc2ncnc(Oc3ccc(NC(=O)OC(C)c4cccc(Cl)c4)c(Cl)c3)c2cc1OC` (stereo not drawn) [Example 7], the IC50 came out at 616 nM in assay [1] (h-SCF 50 ng/ml) and 12 nM in assay [2] (Pharmacological Test Example 1).

As for `COc1cc2nccc(Oc3ccc(NC(=O)OCc4ccc(F)cc4)cc3)c2cc1OC` [Example 8, 4-Fluorobenzyl N-{4-[(6,7-dimethoxy-4-quinolyl)oxy]phenyl}carbamate], the IC50 is 62 nM in assay [1] (h-SCF 50 ng/ml) and less than 10 nM in assay [2] (Pharmacological Test Example 1). Take `COc1cc2nccc(Oc3ccc(NC(=O)OCc4ccc(F)cc4)c(C)c3C)c2cc1OC` [Example 9, 4-Fluorobenzyl N-{4-[(6,7-dimethoxy-4-quinolyl)oxy]-2,3-dimethylphenyl}carbamate]: the IC50 is 45 nM in assay [1] (h-SCF 50 ng/ml) and less than 10 nM in assay [2] (Pharmacological Test Example 1). As to `COc1cc2nccc(Oc3cc(C)c(NC(=O)OCc4ccc(F)cc4)cc3C)c2cc1OC` [Example 10, 4-Fluorobenzyl N-{4-[(6,7-dimethoxy-4-quinolyl)oxy]-2,5-dimethylphenyl}carbamate], the figures for the IC50 in assay [1] (h-SCF 50 ng/ml) and in assay [2] (Pharmacological Test Example 1) were 106 nM and 11 nM, respectively. Consider `COc1cc2ncnc(Oc3ccc(NC(=O)OCc4ccc(F)cc4)cc3)c2cc1OC` [Example 11, 4-Fluorobenzyl N-{4-[(6,7-dimethoxy-4-quinazolinyl)oxy]phenyl}carbamate], for which the IC50 is 36 nM in assay [1] (h-SCF 50 ng/ml) and less than 10 nM in assay [2] (Pharmacological Test Example 1).

Take `COc1cc2ncnc(Oc3ccc(NC(=O)OCc4ccc(F)cc4)c(Cl)c3)c2cc1OC` [Example 12, 4-Fuorobenzyl N-{2-chloro-4-[(6,7-dimethoxy-4-quinazolinyl)oxy]phenyl}carbamate]: the half-inhibitory concentration (IC50) was 389 nM in assay [1] (h-SCF 50 ng/ml) and 11 nM in assay [2] (Pharmacological Test Example 1). In the same order, the values of `COc1cc2nccc(Oc3ccc(NC(=O)OC(C)c4ccccc4Cl)cc3)c2cc1OC` (stereo not drawn) [Example 13, 1-(2-Chlorophenyl)ethyl N-{4-[(6,7-dimethoxy-4-quinolyl)oxy]phenyl}carbamate] are 135 nM and less than 10 nM. Consider `COc1cc2nccc(Oc3ccc(NC(=O)OC(C)c4ccccc4Cl)c(C)c3C)c2cc1OC` (stereo not drawn) [Example 14, 1-(2-Chlorophenyl)ethyl N-{4-[(6,7-dimethoxy-4-quinolyl)oxy]-2,3-dimethylphenyl}carbamate], for which the IC50 in assay [1] (h-SCF 50 ng/ml) came to 209 nM; in assay [2] (Pharmacological Test Example 1), 12 nM. With `COc1cc2ncnc(Oc3ccc(NC(=O)OC(C)c4ccccc4Cl)cc3)c2cc1OC` (stereo not drawn) [Example 15, 1-(2-Chlorophenyl)ethyl N-{4-[(6,7-dimethoxy-4-quinazolinyl)oxy]phenyl}carbamate], in assay [1] (Mo7e, figure in parentheses in −( ), at 1000 nM), the inhibition at 1 µM was found to be 48%. Further, the IC50 in assay [2] (Pharmacological Test Example 1) was 21 nM. For `COc1cc2ncnc(Oc3ccc(NC(=O)OC(C)c4ccccc4Cl)c(Cl)c3)c2cc1OC` (stereo not drawn) [Example 16, 1-(2-Chlorophenyl)ethyl N-{2-chloro-4-[(6,7-dimethoxy-4-quinazolinyl)oxy]phenyl}carbamate], the IC50 in assay [1] (h-SCF 50 ng/ml) is 495 nM; in assay [2] (Pharmacological Test Example 1), less than 10 nM. On to `COc1cc2nccc(Oc3ccc(NC(=O)OCCCOc4ccccc4Cl)c(C)c3C)c2cc1OC` [Example 17, 3-(2-Chlorophenoxy)propyl N-{4-[(6,7-dimethoxy-4-quinolyl)oxy]-2,3-dimethylphenyl}carbamate], for which the IC50 in assay [1] (h-SCF 50 ng/ml) is 57 nM; in assay [2] (Pharmacological Test Example 1), less than 10 nM. In the same order, the values of `COc1cc2nccc(Oc3cc(C)c(NC(=O)OCCCOc4ccccc4Cl)cc3C)c2cc1OC` [Example 18, 3-(2-Chlorophenoxy)propyl N-{4-[(6,7-dimethoxy-4-quinolyl)oxy]-2,5-dimethylphenyl}carbamate] are 93 nM and 22 nM. On the same counts, the results for `COc1cc2ncnc(Oc3ccc(NC(=O)OCCCOc4ccccc4Cl)cc3)c2cc1OC` [Example 19, 3-(2-Chlorophenoxy)propyl N-{4-[(6,7-dimethoxy-4-quinazolinyl)oxy]phenyl}carbamate] are 41 nM and less than 10 nM. In the case of `COc1cc2ncnc(Oc3ccc(NC(=O)OCCCOc4ccccc4Cl)c(Cl)c3)c2cc1OC` [Example 20, 3-(2-Chlorophenoxy)propyl N-{2-chloro-4-[(6,7-dimethoxy-4-quinazolinyl)oxy]phenyl}carbamate], the IC50 was 109 nM in assay [1] (h-SCF 50 ng/ml) and less than 10 nM in assay [2] (Pharmacological Test Example 1).

For the compound `COc1cc2nccc(Oc3ccc(NC(=O)OCc4ccc(C(F)(F)F)cc4)cc3)c2cc1OC` [Example 21, 4-(Trifluoromethyl)benzyl N-{4-[(6,7-dimethoxy-4-quinolyl)oxy]phenyl}carbamate], the IC50 in assay [1] (h-SCF 50 ng/ml) is 135 nM; in assay [2] (Pharmacological Test Example 1), less than 10 nM. For `COc1cc2nccc(Oc3ccc(NC(=O)OCc4ccc(C(F)(F)F)cc4)c(C)c3C)c2cc1OC` [Example 22, 4-(Trifluoromethyl)benzyl N-{4-[(6,7-dimethoxy-4-quinolyl)oxy]-2,3-dimethylphenyl}carbamate], the IC50 was 186 nM in assay [1] (h-SCF 50 ng/ml) and less than 10 nM in assay [2] (Pharmacological Test Example 1). Regarding `COc1cc2nccc(Oc3cc(C)c(NC(=O)OCc4ccc(C(F)(F)F)cc4)cc3C)c2cc1OC` [Example 23, 4-(Trifluoromethyl)benzyl N-{4-[(6,7-dimethoxy-4-quinolyl)oxy]-2,5-dimethylphenyl}carbamate], the figures for the IC50 in assay [1] (h-SCF 50 ng/ml) and in assay [2] (Pharmacological Test Example 1) were 475 nM and less than 10 nM, respectively. Consider `COc1cc2ncnc(Oc3ccc(NC(=O)OCc4ccc(C(F)(F)F)cc4)cc3)c2cc1OC` [Example 24, 4-(Trifluoromethyl)benzyl N-{4-[(6,7-dimethoxy-4-quinazolinyl)oxy]phenyl}carbamate], for which the IC50 in assay [1] (h-SCF 50 ng/ml) was 129 nM; in assay [2] (Pharmacological Test Example 1), less than 10 nM.

Take `COc1cc2nccc(Oc3ccc(NC(=S)NC(=O)C4(c5ccccc5)CC4)cc3Cl)c2cc1OC` [Example 1194, N-{3-Chloro-4-[(6,7-dimethoxy-4-quinolyl)oxy]phenyl}-N′-[(1-phenylcyclopropyl)carbonyl]thiourea]: in assay [2], the IC50 was 56 nM. For `COc1cc2ncnc(Oc3ccc(NC(=S)NC(=O)CCCl)cc3)c2cc1OC` [Example 1199, N-(3-Chloropropanoyl)-N′-{4-[(6,7-dimethoxy-4-quinazolinyl)oxy]phenyl}thiourea], the IC50 in assay [2] turned out to be 42 nM. As for `COc1ccc(C(=O)NC(=S)Nc2ccc(Oc3ncnc4cc(OC)c(OC)cc34)cc2)cc1OC` [Example 1203, N-(3,4-Dimethoxybenzoyl)-N′-{4-[(6,7-dimethoxy-4-quinazolinyl)oxy]phenyl}thiourea], the IC50 in assay [2] was less than 10 nM. Turning to “N-{4-[(6,7-Dimethoxy-4-quinazolinyl)oxy]phenyl}-N-ethyl-N′-(4-phenylbutanoyl)thiourea [Example 1140]”, the IC50 in assay [2] was more than 100 nM. Besides, in assay [2] (figure in parentheses in >100( ), at 100 nM), the “PDGF (E) inhibition (%) at 100 nM” value was 22%. For the compound “N-{4-[(6,7-Dimethoxy-4-quinolyl)oxy]-2,5-dimethylphenyl}-N′-(N-cyclohexylamino)thiourea [Example 523]”, the IC50 in assay [2] is more than 100 nM.
